The subject of data set [1] is E. histolytica clonal strain HM-1:IMSS cl6 trophozoites. As to the kind of experiment: In vitro anti-amebic activity against trophozoites (WST-1 viability). The settings on record: 48 h. How it is done:
Trophozoites were harvested in 3–4 days after inoculation of 1/30 to 1/12 of the total culture volume. After the cultures were chilled on ice for 5 min, trophozoites were collected by centrifugation at 500 ×g for 10 min at 4°C and washed twice with BI-S-33 medium. The obtained trophozoites were suspended in BI-S-33 medium and approximately 1 × 10^4 trophozoites in 200 μl of BI-S-33 medium were poured into each well of a 96-well plate and incubated for 2 h. Subsequently, the medium was removed and 200 μl of BI-S-33 medium or cysteine-deprived BI-S-33 medium containing 1% (v/v) penicillin/streptomycin (Life Technologies) together with test compounds (final concentrations; 0.1, 1, 10, 100 μg/ml for kerriamycin B, kerriamycin C, aggreticin, and xanthofulvin; 0.1, 1, 10, 50, 100 μg/ml for the other compounds) was added to each well and incubated under anaerobic conditions for 48 h. After incubation, the medium was removed and 90 μl of pre-warmed Opti-MEM I (Life Technologies) and 10 μl of WST-1 solution (Dojindo) were added to each well. Viability of trophozoites was detected with absorbance at 450 nm (SH-9000Lab, Corona Electric). Cytotoxicity was measured in triplicate. […] Metronidazole (Sigma–Aldrich, MO, USA) was used as positive control.
In general terms: Tetrazolium dyes change colour on reduction, which living cells bring about.

The nature of data set [2]: Cytotoxicity against MRC-5 cells (WST-8). It is filed as cell-based. Conditions: human fibroblast cells MRC-5, 2 days. As for the experimental part: (§1) Human fibroblast cells, MRC-5, were plated on 96-well flat bottom plates at a density of 1.5 × 10^4 cells/well with 100 μl of MEM medium (Life Technologies, Grand Islands, NY, USA) containing 10% fetal bovine serum (Hana-nesco Bio, Tokyo, Japan) and 1% penicillin-streptomycin (Life Technologies) and incubated at 37°C with 5% CO2 for 2 days. Test compounds in 5 μl of 50% DMSO–H2O and 100 μl of MEM medium were mixed and added to each well. After 2 days cultivation at 37°C with 5% CO2, cell density and morphological changes were observed under a microscope. After observation, 10 μl of WST-8 solution (Dojindo, Kumamoto, Japan) was added to the cells and the plate was incubated at 37°C with 5% CO2 for 2 h. Then, absorbance at 450 nm was measured by spectrophotometer (SH-9000Lab, Corona Electric). Cytotoxicity was measured in duplicate. Staurosporine (our product, in Kitasato Natural Products Library) was used as a positive (cytotoxic) compound. […]; 0.075 to 10 μg/ml for deacetylkinamycin C, deoxyfrenolicin, nanaomycin A, and naphthacemycin A9; 3.1 to 200 μg/ml for tetracycline and patulin; 9.4 to 75 μg/ml for exophillic acid. IC50 values were calculated by the equation described in the reference ([Arita-Morioka et al., 2015]).

The target of the next data set is EhCS1 (Entamoeba histolytica, UniProt O15570). As to the kind of experiment: CS inhibitory activity, recombinant EhCS1 (acid-ninhydrin cysteine detection). The data set is classed as biochemical. As for the experimental part: (§2) The E. coli BL21 (DE3) cell introduced pET-EhCS (CS1, CS3) construct was used for protein expression. Each EhCSs protein was expressed by 1 mM isopropyl β-D-thiogalactopyranoside induction for 12 h at 30°C. After induction, the E. coli cell was harvested and re-suspended in the lysis buffer (50 mM Tris-HCl, pH 8.0, and 300 mM NaCl) containing 0.5 mM phenylmethylsulfonyl fluoride. The suspension was sonicated and centrifuged at 24,000 ×g for 30 min at 4°C. The histidine-tagged rEhCS proteins were purified from the supernatant fraction using a Ni^2+-NTA column and tagged proteins were eluted with 100–200 mM imidazole in 50 mM Tris-HCl, pH 8.0, and 300 mM NaCl. […].
(§3) For measurement of CS inhibitory activity, 10 μl of sample solution [dimethylsulfoxide (DMSO)/H2O = 1/1 solution] and 30 μl of reaction mixture, composed of 2 μl of 50 mM O-acetyL-L-serine, 2 μl of 50 mM Na2S, 12.5 μl of 200 mM Tris-HCl (pH 7.5), and 13.5 μl of water, was poured into each well of a flat-bottom 96-well plate. After 10 μl of enzyme solution (containing 0.1 μg of rEhCS1 or rEhCS3 in H2O) was added to each well, plates were incubated for 15 min at 37°C. The final concentrations of reagents in each well are; 2 mM O-acetyL-L-serine, 2 mM Na2S, and 50 mM Tris-HCl. The enzymatic reaction was stopped by adding 50 μl of acetic acid (>99.9%), and subsequently the reaction for cysteine detection was started by adding 50 μl of acid-ninhydrin reagent ([Gaitonde, 1967]). The mixture in each well was transferred to a 96-well PCR plate and heated at 95°C for 10 min. After the plate was cooled on ice, the mixture was transferred into a flat-bottom 96-well plate filled with 100 μl of ethanol (EtOH). Absorbance at 560 nm was measured by spectrophotometer (SH-9000Lab, Corona Electric, Ibaraki, Japan). […] To determine whether the sample interferes the acid-ninhydrin reagent reaction, 10 μl of sample solution, 10 μl of water, and 30 μl of 1 mM cysteine solution (cysteine hydrochloric acid salt in water) were mixed in a well of 96-well microtiter plate, and then 50 μl of acetic acid (>99.9%) and 50 μl of acid-ninhydrin reagent were added. The mixture was treated and measured the absorbance at 560 nm as above mentioned to check the effect of the sample to the color reaction.
(§4) Each 5 μl of DMSO solution (1 mg/ml, final concentration 100 μg/ml) of 316 library compounds and 5 μl of water (total 10 μl of DMSO/H2O = 1/1 solution per well) were poured into each well of a 96-well microtiter plate to screen for CS inhibitors. For screening microbial broths, 10 μl of the individual broth extract samples (50% EtOH solution) were poured into each well of a 96-well microtiter plate and dried up in vacuo. After drying, 10 μl of DMSO/H2O = 1/1 solution was added and dissolved. Samples showing more than 50% inhibitory activity and having no inhibitory activities against acid ninhydrin reaction were selected for further evaluation. The inhibition values were measured in duplicate or triplicate. […]; 2.0 to 250 μg/ml for deacetylkinamycin C, deoxyfrenolicin, nanaomycin A, tetracycline and patulin; 1.5 to 200 μg/ml for naphthacemycin A9; 3.1 to 400 μg/ml for xanthofulvin, terreinol and citromycetin; 0.06 to 200 μg/ml for exophillic acid.

For another data set, the target named is EhCS3 (Entamoeba histolytica, UniProt Q401L7). As to the kind of experiment: CS inhibitory activity, recombinant EhCS3 (acid-ninhydrin cysteine detection). The data set is classed as biochemical. How it is done: as §2, §3, §4
For the next data set, the system named is semaphorin. Also on record: method as in Kumagai et al., 2003. Conditions: ref Kumagai et al., 2003; cited from earlier work.
In a further data set the test system is MRC-5 cells. As to the kind of experiment: Cytotoxicity against MRC-5 cells (WST-8). It is filed as cell-based. Conditions: human fibroblast cells MRC-5, 2 days. As for the experimental part: as §1
The mark [3] stands for this setting: Entamoeba histolytica, read-out: Cytotoxicity against Entamoeba histolytica IC50, Cys (+).
Where [4] appears, read: Entamoeba histolytica, read-out: Cytotoxicity against Entamoeba histolytica IC50, Cys (–).
The mark [5] stands for this setting: recombinant EhCS1, 15 min at 37°C, 2 mM O-acetyl-L-serine, 2 mM Na2S, read-out: IC50 CS1.
Setting [6] is: recombinant EhCS3, 15 min at 37°C, 2 mM O-acetyl-L-serine, 2 mM Na2S, read-out: IC50 CS3.

Like-named read-outs stand apart in the source and are kept apart here.

Sequence of EhCS1 (O15570 entry or part of it): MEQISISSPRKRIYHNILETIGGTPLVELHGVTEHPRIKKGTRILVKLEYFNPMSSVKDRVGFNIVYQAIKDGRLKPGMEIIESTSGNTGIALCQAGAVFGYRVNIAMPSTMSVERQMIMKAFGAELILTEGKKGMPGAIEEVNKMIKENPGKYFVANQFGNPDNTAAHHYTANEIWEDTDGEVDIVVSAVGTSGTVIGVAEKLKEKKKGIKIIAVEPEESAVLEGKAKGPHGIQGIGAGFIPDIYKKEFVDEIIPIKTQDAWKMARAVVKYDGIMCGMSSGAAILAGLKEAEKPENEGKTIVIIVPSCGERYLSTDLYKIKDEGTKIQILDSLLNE
Sequence of EhCS3 (Q401L7 entry or part of it): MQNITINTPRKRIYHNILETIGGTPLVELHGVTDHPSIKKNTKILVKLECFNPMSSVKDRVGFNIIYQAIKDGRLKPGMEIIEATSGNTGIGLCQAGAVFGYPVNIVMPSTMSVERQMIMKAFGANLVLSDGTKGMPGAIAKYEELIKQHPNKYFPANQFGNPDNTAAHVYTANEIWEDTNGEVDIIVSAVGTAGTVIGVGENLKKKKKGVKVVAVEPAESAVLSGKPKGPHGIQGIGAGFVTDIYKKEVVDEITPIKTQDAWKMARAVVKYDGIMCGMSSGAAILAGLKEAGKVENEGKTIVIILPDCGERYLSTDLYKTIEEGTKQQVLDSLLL

As usually defined, the IC50 is the concentration that inhibits the measured activity by half. For the compound `C[C@@H]1O[C@@H](O[C@@H]2C[C@H](c3ccc4c(c3O)C(=O)C3=C(C4=O)[C@@]4(O[C@H]5CC[C@H](O)[C@H](C)O5)C(=O)C[C@](C)(O)C[C@@]4(O)C=C3)O[C@H](C)[C@H]2O)CC[C@@H]1O` [Aggreticin], the IC50 was 54 ± 4.8 µM in data set [1] (setting [3]), 18 ± 0.7 µM in data set [1] (setting [4]), 0.98 ± 0.05 µM on EhCS1 (setting [5]) and 0.64 ± 0.1 µM at EhCS3 (setting [6]). In addition, in data set [2], the IC50 at 2 days stood at 23 ± 0.6 µM.

For `Cc1cc(=O)c2c(o1)-c1c(cc(O)c(O)c1C(=O)O)OC2` [Citromycetin], the IC50 at EhCS1 (setting [5]) and on EhCS3 (setting [6]) was greater than 1400 µM in each case.

In the case of `C[C@@]1(O)[C@H](O)c2c(c3c(=O)c4cccc(O)c4c(=O)c=3c2=[N+]=[N-])[C@H](O)[C@H]1O` [Deacetylkinamycin C], the IC50 in data set [1] (setting [3]) was 140 ± 13 µM; in data set [1] (setting [4]), 18 ± 10 µM; in data set [2] it was 2.3 ± 0.1 µM; at EhCS1, 21 ± 2.4 µM; at EhCS3, 22 ± 3.7 µM.

Turning to `CCC[C@H]1O[C@H](CC(=O)O)CC2=C1C(=O)c1c(O)cccc1C2=O` [Deoxyfrenolicin], the IC50 in data set [1] (setting [3]) was found to be 1.3 ± 0.04 µM; in data set [1] (setting [4]), 0.5 ± 0.1 µM; on EhCS1 (setting [5]), 57 ± 2 µM; on EhCS3 (setting [6]), 53 ± 1.1 µM. This compound displayed an IC50 at 2 days in data set [2] of 4.7 ± 0.2 µM.

On to `CCCCCCCCCc1cc(OC(=O)c2c(CCCCCCCCC)cc(O)cc2O[C@@H]2O[C@H](CO)[C@@H](O)[C@H](O)[C@H]2O)cc(O)c1C(=O)O` [Exophillic acid], for which the values for the IC50 (in data set [1] (setting [3]); in data set [1] (setting [4]); at EhCS1 (setting [5])) were greater than 140 µM, greater than 140 µM and 24 ± 2.9 µM, respectively. The IC50 at 2 days in data set [2] was greater than 100 µM. Also, the “inhibition against EhCS3” value at EhCS3 is listed as “no inhibition”.

For `C[C@@H]1O[C@@H](CC(=O)O)CC2=C1C(=O)c1c(O)cccc1C2=O` [Nanaomycin A], the IC50 in data set [1] (setting [3]) came out at 12 ± 0.4 µM; in data set [1] (setting [4]) it was 0.8 ± 0.04 µM; at EhCS1 (setting [5]) it was 53 ± 3.9 µM; at EhCS3 (setting [6]) it was 65 ± 4.4 µM. In data set [2], this compound had an IC50 at 2 days of 0.7 ± 0.04 µM.

As to `COc1cc(C)c(-c2cc(OC)cc3c2C(=O)C2=C(C3=O)C(C)(C)c3cc(O)cc(O)c3C2=O)c(OC)c1` [Naphthacemycin A9], the IC50 in data set [1] (setting [3]) is greater than 390 µM; in data set [1] (setting [4]), greater than 390 µM; on EhCS1 (setting [5]), 75 ± 1.8 µM; at EhCS3 (setting [6]), greater than 490 µM. In data set [2], half-maximal inhibition (IC50 at 2 days) was put at 16 ± 0.6 µM. For the same compound, the “inhibition of EhCS3 (in words)” value on EhCS3 is on record as “no inhibition”.

Take `O=C1C=C2C(=CCOC2O)O1` (centres unmarked) [Patulin]: the IC50 in data set [1] (setting [3]) was greater than 650 µM; in data set [1] (setting [4]), 110 ± 12 µM; at EhCS1, 490 ± 81 µM; on EhCS3, 470 ± 37 µM. The compound also gave an IC50 at 2 days in data set [2] of 110 ± 4.6 µM.

With `Cc1c(O)cc2c(c1O)CO[C@@]1(CCCO1)C2=O` [Terreinol], the IC50 on EhCS1 (setting [5]) and at EhCS3 (setting [6]) was greater than 1600 µM in each case.

On to `CN(C)[C@@H]1C(O)=C(C(N)=O)C(=O)[C@@]2(O)C(O)=C3C(=O)c4c(O)cccc4[C@@](C)(O)[C@H]3C[C@@H]12` [Tetracycline, reference compound], for which the IC50 at 2 days in data set [2] came to 430 ± 4.3 µM. For the same compound, the IC50 on EhCS1 worked out at 170 ± 16 µM; on EhCS3, 190 ± 9.5 µM.

Turning to `CC(=O)c1c(C)c(/C(O)=C2\COc3cc(O)c(O)c(C(=O)O)c3C2=O)cc2c(=O)c3c(C(=O)O)c(O)c(O)cc3oc12` [Xanthofulvin], the IC50 was greater than 170 µM in data set [1] (setting [3]), greater than 170 µM in data set [1] (setting [4]), 7.9 ± 1.3 µM at EhCS1 (setting [5]) and 110 ± 8.2 µM at EhCS3 (setting [6]). The “semaphorin inhibitor IC50” value in the data set with semaphorin was 0.09 µg/mL.

Regarding Kerriamycin B, the IC50 in data set [1] (read-out: Cytotoxicity against Entamoeba histolytica IC50, Cys (+), BI-S-33 medium with cysteine, anaerobic) came to 26 ± 1.5 µM; in data set [1] (read-out: Cytotoxicity against Entamoeba histolytica IC50, Cys (–), cysteine-deprived BI-S-33 medium, anaerobic) it was 23 ± 0.3 µM; in the data set with MRC-5 cells it was 21 ± 0.4 µM; at EhCS1 (setting [5]) it was 0.63 ± 0.07 µM; on EhCS3 (setting [6]), 0.31 ± 0.01 µM.

The values are drawn from PMC4568418, “Identification of natural inhibitors of Entamoeba histolytica cysteine synthase from microbial secondary metabolites” (Frontiers in Microbiology, 2015).
